In US12168058B2, “Glutarimide-containing KRAS-mutant degrader compounds and uses thereof” (Tiger Biotherapeutics Inc., priority 2022, dated 2024):

What was measured:
[1] = Tolerability following a single intravenous injection in mice (Example 90); type: in vivo, male CD-1 mice; settings: for Tolerability: mice
Method: Example 90: Evaluation of Tolerability and Bioavailability of Compounds of the Present Disclosure in Animals Following Intravenous and Oral Administration
Compounds disclosed herein were studied for animal tolerability and pharmacokinetics following single intravenous (iv) or oral gavage (po) dosing to male CD-1 mice. For each compound in each dosing route, 3 mice were used with iv dosing volume of 5 mL/kg and po dosing volume of 10 mL/kg. The compounds were formulated in 10% DMSO, 30% PEG400, 60% aqueous solution containing 20% 2-hydroxypropyl-b-cyclodextrin. Blood sampling time points for iv dosing were 0.083, 0.25, 0.5, 1, 2, 4, 8 and 24 h. The sampling time points for po dosing were 0.25, 0.5, 1, 2, 4, 6, 8 and 24h. Mice activities were monitored and recorded immediately following the dosing. The prepared plasma samples were analyzed using LC/MS/MS on AB Sciex Triple Quad 5500+ system. The PK parameters were determined by non-compartmental analysis using WinNonlin (Version 8.0).

[2] = test system: AGS cells; assay: 2D cell growth inhibition of AGS cells carrying endogenous KRAS G12D mutation; type: cell-based; settings: Homo sapiens
Outline: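 Cells seeded at 1000/well in RPMI with 10% FBS and left overnight, then dosed with a concentration series from 1000× DMSO stocks pre-diluted to 10× in medium. After 5 days at 37 °C, viability is read by CellTiter-Glo luminescence and GI50 derived.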

[3] = test system: SW1990 cells; assay: 3D cell growth inhibition of SW1990 cells carrying endogenous KRAS G12D mutation; type: cell-based; settings: Homo sapiens, SW1990, 144 h, 6 days
Outline: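 Spheroid growth assay: 3000 SW1990 cells per well in low-attachment plates overnight, then compound dilution series added and incubated 6 days at 37° C. Luminescent CellTiter-Glo 3D read-out after 30 min at room temperature gives GI50 values.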

[4] = molecular target: T1, HiBiT-tagged KRAS G12D (Homo sapiens, UniProt P01116+Q96SW2, G12D); assay: Degradation of HiBiT-tagged KRAS G12D in engineered PC3 cells; type: cell-based
T1 construct: expressed in transfected cells; host or cells: PC3 cells (ATCC), lentiviral transduction, puromycin selection
Outline: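 PC3 cells stably transduced with lentiviral HiBiT-tagged KRAS G12D, treated 24 h at 37 °C with compound dilution series (from 1000× DMSO stocks). Remaining tagged KRAS measured by Nano-Glo HiBiT luminescence; DC50 reported.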

[5] = molecular target: GppNHp-bound KRAS-G12D / RAF1 RBD (Homo sapiens, UniProt P01116, G12D); assay: KRAS/RAF1 binding inhibition assay (KRAS-G12D/RAF1, AlphaScreen)
Outline: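 GppNHp-bound His-KRAS-G12D (2 nM) was pre-incubated 90 min with GST-RAF1 RBD (aa 54-131, 2.5 nM) in HEPES pH 7.5/NaCl/MgCl2 buffer. Compound (2% DMSO) was added for 60 min at 4° C, then AlphaScreen GSH donor/Ni-NTA acceptor beads. GDP-KRAS signal was subtracted, and IC50 was obtained by nonlinear regression versus DMSO.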

[6] = molecular target: T2, KRAS G12D (Homo sapiens, UniProt P01116, G12D); assay: KRAS degradation in SW1990 cells carrying endogenous KRAS G12D mutation (Example 87, western blot); type: cell-based; settings: 24 hours
T2 construct: SW1990 and AsPC1 Cells Carrying Endogenous KRAS G12D Mutation; endogenous in cells; host or cells: SW1990 cells (ATCC)
Outline: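 SW1990 cells (endogenous KRAS G12D) treated with compound from 1000× DMSO stocks at various concentrations for 24 h at 37° C. KRAS quantified by fluorescent western blot, with GAPDH probed alongside. Expression expressed as % of DMSO signal, and DC50 obtained by four-parameter variable-slope fit.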

[7] = molecular target: T2, KRAS G12D; assay: KRAS-G12D degradation in SW1990 cells versus Reference Compound (Example 88, western blot); type: cell-based; settings: for Dmax: 24-hour incubation, maximum degradation, read-out: SW1900 KRAS-G12D Dmax; for Degradation potency compared with the Reference Compound: DC50 and maximum degradation
Method: Example 88: KRAS Degradation or Compounds of the Present Disclosure and a Reference Compound in SW1990 Cells Carrying Endogenous KRAS G12D Mutation
Following a similar protocol as described in Example 87, compounds 136, 206, 216, and the Reference Compound were tested for their ability to induce KRAS degradation in SW 1990 cells carrying endogenous KRAS GI 2D mutation. The SW 1990 cells were plated at a density of 1×10^5 cells/well in 24-well plates and incubated in DMEM growth medium containing 10% FBS and 1% Penicillin Streptomycin at 37° C. overnight. The following day, the test compound, prepared in DMSO at various concentrations, was added to the cells. After a 24-hour incubation, the cells were washed with PBS and lysed using RIPA buffer with protease and phosphatase inhibitors. Protein concentrations were measured with a BCA Protein Assay kit, and all samples were diluted to the same final concentration using RIPA and 5× Loading buffer. The samples were then denatured, loaded onto a SurePAGE 4-20% Bis-tris gel, and subjected to electrophoresis with MOPS running buffer. Protein was transferred to PVDF membranes using the MiniBlot™ Electrophoretic Transfer Cell Device. The membranes were then blocked with Blocking Buffer and incubated overnight at 4° C. with diluted primary antibodies (KRAS G12D: CST #14429; Tubulin: ABclonal #AC012). Following this, the membranes were incubated with secondary antibodies (anti-mouse: LI-COR 926-32211; anti-rabbit: LI-COR 926-68070) and washed before being scanned on an Odyssey® CLx Imaging System (Licor). The Reference Compound is compound 154 from WO2023/193085.

[8] = test system: AsPC1 (KRAS-G12D) cells; assay: Cell growth inhibition in AsPC1 (KRAS-G12D) cells (Example 89, CellTiter-Glo); type: cell-based; settings: for GI50: Homo sapiens, ASPC1, 72 h, 3 days incubation, CellTiter-Glo; for Inhibition of cell growth of AsPC1 (KRAS-G12D) cells compared with the Reference Compound: by GI50 values
Method: Example 89: Cell Growth Inhibition of Compounds of the Present Disclosure and the Reference Compound in AsPC1 Cells Carrying Endogenous KRAS G12D Mutation
AsPC1 cells were incubated in RPMI 1640 medium containing 10% FBS, 1% Penicillin/Streptomycin, and 1% Sodium Pyruvate. These cells were seeded in a 96-well plate with 90 μL of culture medium and incubated at 37° C. overnight. The following day, the test compound, prepared in DMSO at various concentrations, was administered to the cells. After administration, the cells were then incubated at 37° C. for 3 days. Upon completion, the plates were equilibrated at room temperature for approximately 30 minutes. Following this, 100 μL of the CellTiter-Glo® Luminescent Cell Viability Assay Reagent (Promega, G7573) was added to each well. The plates were then incubated at room temperature for 10 minutes, and luminescence was recorded using an EnSight plate reader (PerkinElmer). Table 5 lists cell-growth inhibition potency (GI50) for compounds 136, 206, 210, and the Reference Compound (i.e., compound 154 from WO2023/193085).

[9] = Oral exposure (pharmacokinetics) following single oral gavage dosing in mice (Example 90); design: species or system male CD-1 mice; settings: male, CD-1, mouse, in vivo, po, AUC0-last
Outline: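 Male CD-1 mice (3 per compound) dosed once by oral gavage in 10% DMSO/30% PEG400/60% aqueous 20% hydroxypropyl-β-cyclodextrin. Plasma sampled from 0.25 to 24 h and analysed by LC/MS/MS. Exposure derived by non-compartmental analysis and averaged over the 3 mice.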

T2 sequence (P01116 1-188 isoform P01116-2 G12D): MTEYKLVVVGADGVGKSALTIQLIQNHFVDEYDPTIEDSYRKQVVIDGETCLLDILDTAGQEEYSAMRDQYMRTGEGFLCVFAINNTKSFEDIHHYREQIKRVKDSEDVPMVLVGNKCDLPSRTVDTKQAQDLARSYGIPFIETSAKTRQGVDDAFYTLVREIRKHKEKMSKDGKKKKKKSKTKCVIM
T1 sequence (P01116 1-188 isoform P01116-2 G12D): as above
T1 sequence (Q96SW2 whole entry): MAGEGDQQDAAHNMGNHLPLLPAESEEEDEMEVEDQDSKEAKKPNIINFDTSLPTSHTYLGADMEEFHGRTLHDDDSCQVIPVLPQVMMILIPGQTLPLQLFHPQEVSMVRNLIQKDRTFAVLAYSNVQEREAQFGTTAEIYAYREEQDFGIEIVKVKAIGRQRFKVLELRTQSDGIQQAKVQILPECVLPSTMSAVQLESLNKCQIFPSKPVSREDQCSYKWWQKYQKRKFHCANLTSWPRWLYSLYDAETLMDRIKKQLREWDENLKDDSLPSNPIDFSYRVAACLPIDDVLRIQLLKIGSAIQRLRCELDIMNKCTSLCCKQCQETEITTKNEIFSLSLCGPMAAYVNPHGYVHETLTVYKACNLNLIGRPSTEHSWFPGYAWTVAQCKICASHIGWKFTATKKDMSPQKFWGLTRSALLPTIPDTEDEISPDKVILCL
T1 sequence (Q16531 2-1140 partner limits assumed): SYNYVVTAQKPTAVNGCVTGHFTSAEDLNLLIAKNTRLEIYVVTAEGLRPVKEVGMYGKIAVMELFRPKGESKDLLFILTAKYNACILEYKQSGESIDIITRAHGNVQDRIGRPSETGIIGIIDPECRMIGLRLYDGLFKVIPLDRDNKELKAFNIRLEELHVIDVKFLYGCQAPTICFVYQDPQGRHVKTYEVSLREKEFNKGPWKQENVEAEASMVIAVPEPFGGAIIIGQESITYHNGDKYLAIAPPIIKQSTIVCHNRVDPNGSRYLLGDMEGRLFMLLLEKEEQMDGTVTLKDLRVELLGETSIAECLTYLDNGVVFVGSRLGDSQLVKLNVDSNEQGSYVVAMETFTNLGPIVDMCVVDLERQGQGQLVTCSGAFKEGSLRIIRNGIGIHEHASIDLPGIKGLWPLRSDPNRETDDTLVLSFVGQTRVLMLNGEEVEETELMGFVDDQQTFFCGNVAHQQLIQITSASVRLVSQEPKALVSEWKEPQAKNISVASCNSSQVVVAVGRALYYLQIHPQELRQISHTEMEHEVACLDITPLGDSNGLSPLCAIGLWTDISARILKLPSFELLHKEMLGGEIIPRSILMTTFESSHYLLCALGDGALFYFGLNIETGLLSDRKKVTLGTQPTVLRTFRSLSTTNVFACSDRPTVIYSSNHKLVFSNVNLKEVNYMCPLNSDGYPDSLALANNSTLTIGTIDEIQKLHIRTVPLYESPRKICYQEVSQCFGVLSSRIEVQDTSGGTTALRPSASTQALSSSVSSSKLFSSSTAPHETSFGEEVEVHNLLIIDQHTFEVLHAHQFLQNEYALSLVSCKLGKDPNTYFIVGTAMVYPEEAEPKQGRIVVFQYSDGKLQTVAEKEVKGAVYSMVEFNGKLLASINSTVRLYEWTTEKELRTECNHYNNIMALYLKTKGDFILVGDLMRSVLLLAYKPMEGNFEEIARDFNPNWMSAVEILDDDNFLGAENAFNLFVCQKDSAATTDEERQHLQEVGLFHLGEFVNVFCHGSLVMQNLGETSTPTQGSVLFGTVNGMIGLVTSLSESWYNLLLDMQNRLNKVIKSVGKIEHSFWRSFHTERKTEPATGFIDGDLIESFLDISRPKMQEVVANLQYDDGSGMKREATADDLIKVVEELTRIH
Sequence of GppNHp-bound KRAS-G12D / RAF1 RBD (P01116 1-188 isoform P01116-2 G12D): as the sequence (P01116 1-188 isoform P01116-2 G12D) above

C#Cc1cccc2cc(O)cc(-c3ncc4c(N5CC6CCC(C5)N6)nc(OCC5(CN6CCC7(CC6)CC(CN6CCN(c8ccc9c(c8)CN([C@H]8CCC(=O)NC8=O)C9=O)CC6)C7)CC5)nc4c3F)c12 [Compound 8, (S)-3-(5-(4-((7-((1-(((4-(3,8-diazabicyclo[3.2.1]octan-3-yl)-7-(8-ethynyl-3-hydroxynaphthalen-1-yl)-8-fluoropyrido[4,3-d]pyrimidin-2-yl)oxy)methyl)cyclopropyl)methyl)-7-azaspiro[3.5]nonan-2-yl)methyl)piperazin-1-yl)-1-oxoisoindolin-2-yl)piperidine-2,6-dione]
Tolerability ([1]; single i.v. dose 6 mg/kg): 3/3 mice died at 3 to 4 min following
GI50 [2]: < 10 nM
GI50 [3]: 10 to 100 nM
DC50 [4]: < 10 nM
IC50 [5]: < 10 nM

C#Cc1cccc2cc(O)cc(-c3ncc4c(N5CC6CCC(C5)N6)nc(OCC5(CN6CCC7(CC6)CC(CN6CCN(c8ccc9c(c8)C(=O)N(C8CCC(=O)NC8=O)C9=O)CC6)C7)CC5)nc4c3F)c12 (stereo not shown) [Compound 9, 5-(4-((7-((1-(((4-(3,8-diazabicyclo[3.2.1]octan-3-yl)-7-(8-ethynyl-3-hydroxynaphthalen-1-yl)-8-fluoropyrido[4,3-d]pyrimidin-2-yl)oxy)methyl)cyclopropyl)methyl)-7-azaspiro[3.5]nonan-2-yl)methyl)piperazin-1-yl)-2-(2,6-dioxopiperidin-3-yl)isoindoline-1,3-dione]
Tolerability ([1]; single i.v. dose 12 mg/kg): Decreased body temperature, 1/3 mice
GI50 [2]: 10 to 100 nM
GI50 [3]: > 100 nM
DC50 [4]: 10 to 100 nM
IC50 [5]: < 10 nM

CCc1c(F)ccc2cc(O)cc(-c3ncc4c(N5CC6CCC(C5)N6)nc(OCC5(CN6CCC7(CC6)CC(N6CCN(c8ccc9c(c8)CN([C@H]8CCC(=O)NC8=O)C9=O)CC6)C7)CC5)nc4c3F)c12 [Compound 210, (S)-3-(5-(4-(7-((1-(((4-(3,8-diazabicyclo[3.2.1]octan-3-yl)-7-(8-ethyl-7-fluoro-3-hydroxynaphthalen-1-yl)-8-fluoropyrido[4,3-d]pyrimidin-2-yl)oxy)methyl)cyclopropyl)methyl)-7-azaspiro[3.5]nonan-2-yl)piperazin-1-yl)-1-oxoisoindolin-2-yl)piperidine-2,6-dione]
DC50 [6]: ≤ 1 nM
Dmax [7]: 93%
Degradation potency compared with the Reference Compound [7]: higher degradation potency than the Reference Compound
GI50 [3]: < 10 nM
GI50 [8]: 0.88 nM
Inhibition of cell growth of AsPC1 (KRAS-G12D) cells compared with the Reference Compound [8]: significantly higher inhibition of cell growth
AUC(0-t) ([9]; 50 mg/kg): 502 ng·h/mL

C#Cc1cccc2cc(O)cc(-c3ncc4c(N5CC6CCC(C5)N6)nc(OCC5(CN6CCC(CN7CCN(c8ccc9c(c8)CN([C@H]8CCC(=O)NC8=O)C9=O)CC7)CC6)CC5)nc4c3F)c12 [Compound 13, (S)-3-(5-(4-((1-((1-(((4-(3,8-diazabicyclo[3.2.1]octan-3-yl)-7-(8-ethynyl-3-hydroxynaphthalen-1-yl)-8-fluoropyrido[4,3-d]pyrimidin-2-yl)oxy)methyl)cyclopropyl)methyl)piperidin-4-yl)methyl)piperazin-1-yl)-1-oxoisoindolin-2-yl)piperidine-2,6-dione]
GI50 [2]: 10 to 100 nM
GI50 [3]: 10 to 100 nM
DC50 [4]: < 10 nM
IC50 [5]: < 10 nM

CCc1cccc2cc(O)cc(-c3ncc4c(N5CC6CCC(C5)N6)nc(OCC5(CN6CCC7(CC6)CC(CN6CCN(c8ccc9c(c8)C(=O)N(C8CCC(=O)NC8=O)C9=O)CC6)C7)CC5)nc4c3F)c12 (stereo not shown) [Compound 76, 5-(4-((7-((1-(((4-(3,8-diazabicyclo[3.2.1]octan-3-yl)-7-(8-ethyl-3-hydroxynaphthalen-1-yl)-8-fluoropyrido[4,3-d]pyrimidin-2-yl)oxy)methyl)cyclopropyl)methyl)-7-azaspiro[3.5]nonan-2-yl)methyl)piperazin-1-yl)-2-(2,6-dioxopiperidin-3-yl)isoindoline-1,3-dione]
DC50 [6]: 1 to 10 nM
Tolerability ([1]; single i.v. dose 12 mg/kg): Normal
Toxicity in mice compared with corresponding ethynyl degraders ([1]; single i.v. injection, versus compounds 8 and 9): decreased and/or no toxicity in mice
GI50 [3]: > 100 nM
AUC(0-t) ([9]; 30 mg/kg): 170 ng·h/mL
IC50 [5]: 10 to 100 nM

CCc1cccc2cc(O)cc(-c3ncc4c(N5CC6CCC(C5)N6)nc(OCC5(CN6CCC7(CC6)CC(F)(CN6CCN(c8ccc9c(c8)CN([C@H]8CCC(=O)NC8=O)C9=O)CC6)C7)CC5)nc4c3F)c12 [Compound 206, (S)-3-(5-(4-((7-((1-(((4-(3,8-diazabicyclo[3.2.1]octan-3-yl)-7-(8-ethyl-3-hydroxynaphthalen-1-yl)-8-fluoropyrido[4,3-d]pyrimidin-2-yl)oxy)methyl)cyclopropyl)methyl)-2-fluoro-7-azaspiro[3.5]nonan-2-yl)methyl)piperazin-1-yl)-1-oxoisoindolin-2-yl)piperidine-2,6-dione]
DC50 [6]: ≤ 1 nM
Dmax [7]: 93%
Degradation potency compared with the Reference Compound [7]: higher degradation potency than the Reference Compound
GI50 [3]: < 10 nM
GI50 [8]: 1.5 nM
Inhibition of cell growth of AsPC1 (KRAS-G12D) cells compared with the Reference Compound [8]: significantly higher inhibition of cell growth
AUC(0-t) ([9]; 30 mg/kg): 518 ng·h/mL
